# Assay results published in patent publication US7244847B2, “Benzimidazole compounds” (Isis Pharmaceuticals, Inc., priority 2002, dated 2007).
# Where two headings read alike, the source gives them in different places.
# Tests used:
# Ag IIa HCV IRES Target = test: MASS screening against Ag IIa HCV IRES target; format: binding; settings: target conc. […], ligand conc. 50 μM; for Selectivity: by mass spectral analysis
# Method: A series of 2-aminobenzimidazole dimers were synthesized according to the procedure described in Example 11. A series of 5- and 6-substituted-2-aminobenzimidazoles also were synthesized, and all were evaluated for biological activity. Tables 4-7 report MIC and transcription/translation activity for the dimer compounds By the outlined procedure. Tables 8 and 9 report the MASS screening of 2-aminobenzimidazoles against the AgIIa HCV-IRES target. The reported selectivity was determined by mass spectral analysis of any associations and provides information about the relative binding affinities.
# S. aureus [1] = test: MIC assay of Example 20, S. aureus; format: cell-based; settings: Tables 4-7
# Method: (§1) The assays are carried out in 150 μL volume in duplicate in 96-well clear flat-bottom bottom plates. The bacterial suspension from an overnight culture growth in appropriate medium is added to a solution of test compound in 4% DMSO in water. Final bacterial inoculum is approximately 10^5-10^6 CFU/well. The percent growth of the bacteria in test wells relative to that observed for a well containing no compound is determined by measuring absorbance at 595 nm (A595) after 24 h. The MIC is determined as a range of single compound where the complete inhibition of growth is observed at the higher concentration and cells are viable at the lower concentrations. Both ampicillin and tetracycline are used as antibiotic-positive controls in each screening assay for S. pyogenes, E. coli, S. aureus, E. faecalis, K. pneumoniae and P. vulgaris; . Ciprofloxacin is used as an antibiotic positive control in each screening assay for P. aeruginosa.
# [2] = test system: Bacterial Transcription/Translation; test: bacterial transcription/translation assay (pBestLuc luciferase, E. coli S30 extract); format: biochemical
# Method: This series of assays is known to those of skill in the art, and other assays may be substituted therefore without deviating from the spirit and scope hereof. The DNA template, pBestLuc™ (Promega), is a plasmid containing a reporter gene for firefly luciferase fused to a strong tac promoter and ribosome binding site. Messenger RNA from 1 μg pBestLuc is transcribed and translated in E. coli S30 bacterial extract in the presence or absence of test compound. Compounds are tested in a black 96 well microtiter plate with an assay volume of 35 μL. […] The transcription/translation reaction is incubated for 35 minutes at 37° C. followed by detection of functional luciferase with the addition of 30 μL LucLite™ (Packard). Light output is quantitated on a Packard TopCount.
# E. coli [3] = test: MIC assay of Example 20, E. coli; format: cell-based; settings: Tables 4-7
# Method: as §1
# E. coli 16S A-site [4] = test: MS-based assay of binding affinity for 16S RNA A-site
# Description: It has been established that the 16S A-site is involved in bacterial translation, and the aminoglycosides are known to bind to the region. Thus, the bacterial 16S A-site represents a prime target for discovering antibacterial agents, and much work has focused on the modification of the natural aminoglycosides. […] These are shown below in Scheme 17. [drawing 31]
# The synthesis of compound 1 and piperidine-modified benzimidazoles are shown above in Scheme 17.
# A series of benzimidazole-modified analogs were prepared as shown above. The procedure required the simple heating of a suitable 1,2-dianiline (8) with isonipecotic acid (9) in the presence of polyphosphoric acid.
# S. aureus [5] = test: in vitro antibacterial activity (MIC) against S. aureus; format: cell-based; settings: Staphylococcus aureus; Tables 1 and 2
# Method: (§2) Compounds were evaluated for in vitro antibacterial activity (referred to MIC, the minimum concentration inhibiting fungal cell growth) against S. aureus and E. coli. […] The assays are carried out in 150 mL volume in duplicate in 96-well clear flat-bottom plates. […] Final bacterial or yeast inoculum is approximately 10^2-10^3 CFU/well. […] (bacteria) or 40-48 hours (yeast) at 25° C. The MIC is determined as a range of concentration where complete inhibition of growth is observed at the higher concentration and bacterial/yeast cells are viable at the lower concentration. Ampicillin and tetracycline are used as antibiotic positive controls for bacterial MIC assays.
# (§3) The assays are carried out in 150 μL volume in duplicate in 96-well clear flat-bottom plates. […] Final bacterial or yeast inoculum is approximately 10^2-10^3 CFU/well. […] (bacteria) or 40-48 hours (yeast) at 25° C. The MIC is determined as a range of concentration where complete inhibition of growth is observed at the higher concentration and bacterial/yeast cells are viable at the lower concentration. Ampicillin and tetracycline are used as antibiotic positive controls for bacterial MIC assays.
# E. coli [6] = test: in vitro antibacterial activity (MIC) against E. coli; format: cell-based; settings: Escherichia coli; Tables 1 and 2
# Method: as §2, §3
# E. coli 16S A-site [7] = test: MS-based competition experiments to determine the binding location; settings: competition of 1 with glucosamine
# Description: MS-based competition experiments were used to determine the binding location of 1 to the target RNA. Glucosamine is the A-ring of paromomycin that is known to bind to the target RNA and inhibits bacterial translation.
# [8] = Tables 4-7, read-out: Transcription/Translation, IC50
structure (smiles),measurement,setting,value
CN(C)CCCOc1ccc2nc(N)n(CCCN(C)C)c2c1 [O(CH2)3N(CH3)2],% Complex,Ag IIa HCV IRES Target,862%
same,% Dimer,Ag IIa HCV IRES Target,72%
same,Selectivity,Ag IIa HCV IRES Target,96.88
CN(CCCn1c(N)nc2ccccc21)CCCn1c(N)nc2ccccc21,MIC,S. aureus [1]; Staphylococcus aureus,75 to 100 µM
same,IC50,[2]; [8],25 µM
same,MIC,E. coli [3]; Escherichia coli,25 to 50 µM
CN(C)CCCn1c(N)nc2ccccc21 [drawing 42],MIC,S. aureus [1]; Staphylococcus aureus,> 50 µM
same,IC50,[2]; [8],> 100 µM
same,MIC,E. coli [3]; Escherichia coli,> 50 µM
CN(CCCn1c(N)nc2cc(C(F)(F)F)ccc21)CCCn1c(N)nc2cc(C(F)(F)F)ccc21,MIC,S. aureus [1]; Staphylococcus aureus,50 to 100 µM
same,IC50,[2]; [8],> 100 µM
same,MIC,E. coli [3]; Escherichia coli,25 to 50 µM
Clc1ccc2[nH]c(C3CCNCC3)nc2c1 [Compound 10d],"binding affinity for 16S RNA A-site, in words",E. coli 16S A-site [4],tolerated
CC(=O)N1CCC(c2nc3cc([N+](=O)[O-])ccc3[nH]2)CC1 [Compound 7a],"binding affinity for 16S RNA A-site, in words",E. coli 16S A-site [4],diminished the binding affinity
c1cnc2nc(C3CCNCC3)[nH]c2c1 [Compound 10j],"binding affinity for 16S RNA A-site, in words",E. coli 16S A-site [4],reduced activities
COc1ccc2nc(N)n(CCCN(C)C)c2c1 [OCH3],% Complex,Ag IIa HCV IRES Target,286%
same,% Dimer,Ag IIa HCV IRES Target,39%
same,Selectivity,Ag IIa HCV IRES Target,10.67
CN(C)CCCn1c(N)nc2cc(CN)ccc21 [CH2NH2],% Complex,Ag IIa HCV IRES Target,109%
same,% Dimer,Ag IIa HCV IRES Target,80%
same,Selectivity,Ag IIa HCV IRES Target,2.3
CN(CCCn1c(N)nc2cc(Br)ccc21)CCCn1c(N)nc2cc(Br)ccc21,MIC,S. aureus [1]; Staphylococcus aureus,25 to 50 µM
same,IC50,[2]; [8],> 100 µM
same,MIC,E. coli [3]; Escherichia coli,25 to 50 µM
CN(C)CCCn1c(N)nc2ccccc21 [H],% Complex,Ag IIa HCV IRES Target,125%
same,% Dimer,Ag IIa HCV IRES Target,35%
same,Selectivity,Ag IIa HCV IRES Target,4.30
CN(CCCn1c(N)nc2cc(Cl)c(Cl)cc21)CCCn1c(N)nc2cc(Cl)c(Cl)cc21 [X = N—Me],"MIC, S. aureus",S. aureus [1],75 to 100 µM
same,IC50,[2]; [8],25 µM
same,"MIC, E. coli",E. coli [3],25 to 50 µM
Cc1ccc2nc(N)n(CCCN(C)CCCn3c(N)nc4ccc(C)cc43)c2c1,MIC,S. aureus [1]; Staphylococcus aureus,> 100 µM
same,IC50,[2]; [8],6 to 12 µM
same,MIC,E. coli [3]; Escherichia coli,> 100 µM
CN(CCCn1c(N)nc2cc(C#N)ccc21)CCCn1c(N)nc2cc(C#N)ccc21,MIC,S. aureus [1]; Staphylococcus aureus,> 200 µM
same,IC50,[2]; [8],> 200 µM
same,MIC,E. coli [3]; Escherichia coli,> 200 µM
CC(C)(C)OC(=O)N1CCC(c2nc3cc(Cl)c(Cl)cc3n2Cc2ccc(CBr)cc2)CC1 [Compound 4g],MIC,S. aureus [5],52 µM
same,IC50,"[2]; Tables 1 and 2, bacterial transcription/translation, read-out: T/T IC50 MIC",> 100 µM
same,MIC,E. coli [6],> 100 µM
Cc1ccc2[nH]c(C3CCNCC3)nc2c1 [Compound 10b],"binding affinity for 16S RNA A-site, in words",E. coli 16S A-site [4],tolerated
Cc1ccc2nc(N)n(CCCN(C)C)c2c1 [CH3],% Complex,Ag IIa HCV IRES Target,136%
same,% Dimer,Ag IIa HCV IRES Target,31%
same,Selectivity,Ag IIa HCV IRES Target,6.55
COC(=O)c1ccc2c(c1)nc(N)n2CCCN(C)CCCn1c(N)nc2cc(C(=O)OC)ccc21,MIC,S. aureus [1]; Staphylococcus aureus,> 200 µM
same,IC50,[2]; [8],> 100 µM
same,MIC,E. coli [3]; Escherichia coli,> 200 µM
N[C@H]1C(O)O[C@H](CO)[C@@H](O)[C@@H]1O (some centres unmarked) [glucosamine],"binding site on the target RNA (competition), in words",E. coli 16S A-site [7],compete for the same binding site
CN(CCCn1c(N)nc2cc(Cl)c(Cl)cc21)CCCn1c(N)nc2cc(Cl)c(Cl)cc21 [drawing 35],MIC,S. aureus [1]; Staphylococcus aureus,12 to 25 µM
same,IC50,[2]; [8],> 100 µM
same,MIC,E. coli [3]; Escherichia coli,12 to 25 µM
CN(CCn1c(N)nc2cc(Cl)c(Cl)cc21)CCn1c(N)nc2cc(Cl)c(Cl)cc21 [X = Cl],MIC,S. aureus [1],>100 µM
same,IC50,[2]; [8],> 100 µM
same,MIC,E. coli [3],>100 µM
CN(CCn1c(N)nc2ccccc21)CCn1c(N)nc2ccccc21 [X = H],MIC,S. aureus [1],>100 µM
same,IC50,[2]; [8],> 100 µM
same,MIC,E. coli [3],>100 µM
